The results in this text go back to article PMC3842914, “Meleagrin, a New FabI Inhibitor from Penicillium chryosogenum with at Least One Additional Mode of Action” (PLoS ONE, 2013).

This test addresses T1, S. aureus FabI (Staphylococcus aureus, UniProt Q6GI75).
T1 construct: made in house
T1 sequence (Q6GI75 1-256): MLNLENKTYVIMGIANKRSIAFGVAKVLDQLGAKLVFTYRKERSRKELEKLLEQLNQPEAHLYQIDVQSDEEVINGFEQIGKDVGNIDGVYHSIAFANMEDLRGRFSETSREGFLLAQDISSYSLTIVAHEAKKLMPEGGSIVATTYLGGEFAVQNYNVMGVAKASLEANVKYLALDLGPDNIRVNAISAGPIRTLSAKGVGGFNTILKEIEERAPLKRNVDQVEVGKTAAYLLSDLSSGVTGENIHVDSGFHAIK
Description: Fluorescence quenching assay (direct binding). The settings on record: increasing amounts of compound; FabI fluorescence at 307 nm. As for the experimental part:
Fluorescence spectra were measured using a SHIMADZU fluorescence spectrophotometer (model RF-5310PC). […] Protein quenching was monitored at 25°C by using 5-nm excitation and 5-nm emission wavelength. The excitation wavelength was 280 nm, and the emission spectra were measured between 290 and 430 nm.

For the compound `NC[C@H]1O[C@H](O[C@H]2[C@H](O)[C@@H](O[C@H]3O[C@H](CO)[C@@H](O)[C@H](N)[C@H]3O)[C@H](N)C[C@@H]2N)[C@H](O)[C@@H](O)[C@@H]1O` [kanamycin, reference compound], the “Fluorescence quenching of S. aureus FabI” value is “did not”.
